{
  "source": "patent US9145424B2",
  "about": "“Treatment of amyotrophic lateral sclerosis” (Northwestern University, priority 2008, dated 2015)",
  "key": {"[1]": {"test_system": "PC12 cells that express mutant G93A SOD1", "assay": "Mutant SOD1-induced cytotoxicity protection assay", "experimental": "This idea was tested by examining the sensitivity of PC12 cells to SOD1 aggregates in the presence and absence of proteasome inhibitor MG132. PC12 cells expressing no SOD1, wild type SOD1, G85R SOD1 or G93A SOD1 were grown with or without MG132 (FIG. 1).\nPC12 cells expressing G93A SOD1 were treated with 100 nM MG132 with or without co-treatment with geldanamycin or radicicol."}, "[2]": {"assay": "In vitro microsomal stability, human", "type": "in vitro ADME", "details": "human, human liver microsomes; read-out: human metabolic potential T1/2", "experimental": "(§1) Metabolism (microsome, S9 fraction, CYP450): Liver Cytochrome P450 (CYP450) enzymes are the major route for xenobiotic metabolism and microsomal and hepatocyte stability is the best predictor of pharmacokinetic half-life. Cross-species comparisons of metabolism in liver microsomes can predict potential issues with liver toxicity in humans. Selected active compounds are tested in liver microsomes from efficacy species (mouse), toxicity species (rat, dog, monkey), and humans for metabolic stability.\n(§2) CMB-087229 was sent for an evaluation of its in vitro ADME properties.\n(§3) Two possible amines, secondary and tertiary AAP analogues, were initially screened in the protection assay (FIG. 30) and for in vitro microsomal stability (Table 1) and Caco-2 permeability (Table 2). […] The solubilities of 2 and 3 were good in aqueous media (≧150 μM), and no precipitation occurred at the highest concentration. The in vitro plasma half-life for both compounds was >60 min."}, "[3]": {"assay": "In vitro microsomal stability, mouse", "type": "in vitro ADME", "details": "mouse, mouse liver microsomes; read-out: mouse metabolic potential T1/2", "experimental": "as §1, §2, §3"}, "[4]": {"assay": "In vitro Caco-2 permeability", "type": "in vitro ADME", "details": "human, Caco-2", "experimental": "General Permeability: High membrane permeability is required for effective GI absorption and optimal bioavailability. Passive permeability is typically assessed in the PAMPA artificial membrane assay (Kansy et al., J. Med. Chem. 2002, 45(8), 1712-1722). Cell-based permeability determinations using the Caco-2 cell assay are more resource intensive but more predictive of active transport or efflux in vivo (Artursson et al., Adv. Drug. Deliv. Rev. 2001, 46(1-3), 27-43). Caco-2 assays are performed as needed during SAR development."}, "[5]": {"assay": "In vitro plasma stability", "type": "in vitro ADME", "details": "plasma; read-out: plasma stability T1/2", "experimental": "Plasma stability: Plasma stability of active compounds is assessed in efficacy species (mouse), toxicity species (rat, dog, monkey), and human cells."}, "Aqueous solubility": {"assay": "Aqueous solubility", "type": "physicochemical", "experimental": "Solubility: Because compounds are stored in DMSO, it is necessary to determine aqueous solubility of initial hit compounds and their analogs. High solubility in aqueous solution is necessary for high GI absorption, bioavailability, and for chemical formulation. Compounds should be soluble in aqueous solution at >10 μg/ml. Solubility of >50 μg/ml is preferred."}, "[6]": {"assay": "Metabolic half-life in rats", "type": "in vitro ADME", "details": "rat", "source_text": "as §2"}, "[7]": {"assay": "Brain uptake procedure, LCMS of brain and plasma", "type": "in vivo, mice (Tg6799 colony with B6/SJL background)", "details": "1 mg/kg i.p.; for concentration at 10 min / Kp at 10 min: Tg6799 colony with B6/SJL background, mouse, intraperitoneal, 1 mg/kg; for Kp at 10 min: brain/plasma", "experimental": "CMB-087229 Mice Brain and Plasma Data CMB-087229 (1 mg/kg) was administrated to mice (Tg6799 colony with B6/SJL background) by intraperitoneal injection in a 60% PBS and 40% dimethyl sulfoxide solution. At 10 minutes after compound administration the mice were sacrificed. Blood was harvested and plasma was transferred to flash freeze in liquid nitrogen after centrifugation. Mice were perfused. The brain was homogenized in 100% acetonitrile. CMB-003319 (0.5 μg, 1.73 nmol) was added as an internal standard. The homogenates were centrifuged at 12000×g for 12 min, and the supernatant was evaporated. The residue was reconstituted in 33.3% acetonitrile. Solid phase extraction followed by LCMS (API 300 liquid chromatography-tandem mass spectrometry system, Applied Biosystems, Foster City, Calif.; Agilent 1100 series HPLC system, Agilent Technologies, Wilmington, Del.) was used to quantify the amount of CMB-087229 in mouse brain. Solid-phase extraction cartridges (Sep-Pak C18, Water Associates, Milford, Mass.) were washed with 1 mL acetonitrile and equilibrated with 1 mL of water. The reconstituted supernatant was then loaded, washed with 1 mL×2 of 33.3% acetonitrile. CMB-087229 was then dried and submitted for LCMS."}, "G93A SOD1 ALS mice": {"test_system": "G93A SOD1 ALS mice", "assay": "Survival in the G93A SOD1 ALS mouse model", "type": "in vivo", "details": "20 mg/kg", "experimental": "The compounds identified were evaluated in the transgenic G93A ALS mouse model. ADME data was used to determine optimal route of administration. LD50 and maximally-tolerated dose were determined, and that information was used to design and execute pharmacokinetic studies to assess brain bioavailability, and to guide choice of dosing regimen (i.e., frequency, dose, route). […] This may include further dose optimization, phenotype assessment, comparison with compounds of established efficacy, and analysis of brain tissue in treated animals.\nIn the present study, G93A SOD1 mice and littermate controls were bred from existing colonies at the Bedford VA Medical Hospital. The male G93A SOD1 mice were mated with B6SJL females and the offspring were genotyped by PCR using tail DNA. […] Mice were housed in micro-isolator cages in complete barrier facilities. A 12 hour light-dark cycle was maintained and animals were given free access to food and water. Control and transgenic mice of the same age (±2 days) and from the same ‘f’ generation were selected from multiple litters to form experimental cohorts (n=20 per group). […]\nData sets are generated and analyzed for each clinical and neuropathological measure. […] Dose-dependent effects are assessed in each treatment group using multiple two-sided ANOVA tests. […]"}, "in vivo": {"assay": "in vivo", "details": "mouse"}},
  "note": "Several values for one entry are separate records, joined by “and”; a condition that tells them apart may be missing. Identical values can stand only once. Like-named read-outs stand apart in the source and are kept apart here.",
  "data": [
    {"molecule": "O=c1cc(COc2cc(Cl)cc(Cl)c2)[nH][nH]1", "note": "[CMB-087229]", "values": [
      {"measurement": "potency (ED50)", "setting": "[1]", "result": 74, "unit": "nM"},
      {"measurement": "half-life", "setting": "[2]", "result": 93, "unit": "min"},
      {"measurement": "half-life", "setting": "[3]", "result": 36, "unit": "min"},
      {"measurement": "Papp (A→B)", "setting": "[4]", "result": 37, "unit": "×10⁻⁶ cm/s"},
      {"measurement": "half-life", "setting": "[5]", "result": 17, "unit": "min"},
      {"measurement": "aqueous solubility", "setting": "Aqueous solubility", "result": 250, "unit": "µM"},
      {"measurement": "half-life", "setting": "[6]", "result": "~120", "unit": "min"},
      {"measurement": "Brain Extract concentration", "setting": "[7]; 10 minutes, single mice", "result": "0.159 µg/mL and 0.187 µg/mL"},
      {"measurement": "Brain concentration", "setting": "[7]; 10 minutes, single mice", "result": "0.366 µg/g and 0.467 µg/g"},
      {"measurement": "Brain/plasma Ratio July", "setting": "[7]; 10 minutes, single mice", "result": "4.10 and 3.13"},
      {"measurement": "Plasma concentration July", "setting": "[7]; 10 minutes, single mice", "result": "0.0892 µg/mL and 0.149 µg/mL"},
      {"measurement": "concentration at 10 min", "setting": "[7]; brain extract, 10 minutes, single mice, read-out: Brain Extract concentration", "result": 121, "unit": "ng/mL"},
      {"measurement": "concentration at 10 min", "setting": "[7]; brain, 10 min July, read-out: Brain concentration (Mean ± S.E.)", "result": "363 ± 105", "unit": "ng/g"},
      {"measurement": "concentration at 10 min", "setting": "[7]; brain, 10 minutes, single mice, read-out: Brain concentration", "result": 257, "unit": "ng/g"},
      {"measurement": "Kp at 10 min", "setting": "[7]; 10 min July, read-out: Brain/Plasma Ratio (Mean ± S.E.)", "result": "3.36 ± 0.66"},
      {"measurement": "Kp at 10 min", "setting": "[7]; 10 minutes, single mice, read-out: Brain/plasma Ratio July", "result": 2.84},
      {"measurement": "concentration at 10 min", "setting": "[7]; plasma, 10 min July, read-out: Plasma concentration (Mean ± S.E.)", "result": "110 ± 34.2", "unit": "ng/mL"},
      {"measurement": "concentration at 10 min", "setting": "[7]; plasma, 10 minutes, single mice, read-out: Plasma concentration July", "result": 90.4, "unit": "ng/mL"},
      {"measurement": "extension in survival", "setting": "G93A SOD1 ALS mice", "result": 13.4, "unit": "%"},
      {"measurement": "Kp", "setting": "in vivo", "result": "~0.55"},
      {"measurement": "concentration at 4 h", "setting": "in vivo; concentration in the brain", "result": 194, "unit": "µM"},
      {"measurement": "concentration at 3 h", "setting": "in vivo; plasma concentration", "result": 342, "unit": "µM"},
      {"measurement": "concentration at 6 h", "setting": "in vivo; plasma concentration", "result": 347, "unit": "µM"},
      {"measurement": "concentration at 12 h", "setting": "in vivo; plasma concentration", "result": 248, "unit": "µM"},
      {"measurement": "concentration at 24 h", "setting": "in vivo; plasma concentration", "result": 1680, "unit": "nM"}
    ]}
  ]
}
